Test results as given in ChEMBL document CHEMBL5360558, “Molecular design, synthesis and anticancer activity of new thiopyrano[2,3-d]thiazoles based on 5-hydroxy-1,4-naphthoquinone (juglone)” (Eur J Med Chem, 2023).
Calls of active or inactive are those of the source. The rule behind the calls is not given here.

Key:
CCRF-CEM [1] = assay: Induction of cell cycle arrest in human CCRF-CEM cells assessed as accumulation of cells at sub-G1 phase at 4.14 uM incubated for 24 hrs by propidium iodide staining based flow cytometry analysis (reference value: 2.36 +/- 0.049%); format: functional
SNB-75 = assay: Growth inhibition of human SNB-75 cells incubated for 48 hrs by sulforhodamine B spectrophotometric assay; format: functional
KB 3-1 [2] = assay: Antiproliferative activity against human KB 3-1 cells assessed as decrease in cell growth at 500 nM incubated for 72 hrs by crystal violet staining based assay; format: functional
RXF 393 = assay: Growth inhibition of human RXF 393 cells incubated for 48 hrs by sulforhodamine B spectrophotometric assay; format: functional
CCRF-CEM [3] = assay: Induction of cell cycle arrest in human CCRF-CEM cells assessed as DNA synthesis at 4.14 uM incubated for 2.5 hrs by BrdU incorporation based flow cytometry analysis (reference value: 42.4 +/- 0.66%); format: functional
SN12C = assay: Growth inhibition against human SN12C cells assessed as total growth inhibitory concentration incubated for 48 hrs by sulforhodamine B spectrophotometric assay; format: functional
MDA-MB-231 [4] = assay: Induction of apoptosis in human MDA-MB-231 cells assessed as increase in caspase-8 level at 5 uM incubated for 24 hrs by flow cytometry analysis; format: functional
SR = assay: Growth inhibition against human SR cells assessed as lethal concentration incubated for 48 hrs by sulforhodamine B spectrophotometric assay; format: functional; settings: read-out: LC50 (the source's name)
MDA-MB-435 [5] = assay: Growth inhibition of human MDA-MB-435 cells incubated for 48 hrs by sulforhodamine B spectrophotometric assay; format: functional
MCF7 [6] = assay: Growth inhibition against human MCF7 cells assessed as lethal concentration incubated for 48 hrs by sulforhodamine B spectrophotometric assay; format: functional; settings: read-out: LC50 (the source's name)
[7] = Acute toxicity in C57BL/6 mouse assessed as ratio of spleen weight to body weight at 20 mg/kg,ip administration and observed after 22 days (reference value: 0.53 +/- 0.18); format: organism-based; settings: in vivo, 528 h, time 22 day
Hs-578T = assay: Growth inhibition against human Hs-578T cells assessed as total growth inhibitory concentration incubated for 48 hrs by sulforhodamine B spectrophotometric assay; format: functional
HCC 2998 = assay: Growth inhibition against human HCC 2998 cells assessed as total growth inhibitory concentration incubated for 48 hrs by sulforhodamine B spectrophotometric assay; format: functional
M14 = assay: Growth inhibition against human M14 cells assessed as lethal concentration incubated for 48 hrs by sulforhodamine B spectrophotometric assay; format: functional; settings: read-out: LC50 (the source's name)
KM12 = assay: Growth inhibition against human KM12 cells assessed as lethal concentration incubated for 48 hrs by sulforhodamine B spectrophotometric assay; format: functional; settings: read-out: LC50 (the source's name)
BT-549 = assay: Anticancer activity against human BT-549 cells assessed as cell growth at 10 uM incubated for 48 hrs by sulforhodamine B assay; format: functional; settings: read-out: Activity
UACC-62 = assay: Growth inhibition of human UACC-62 cells incubated for 48 hrs by sulforhodamine B spectrophotometric assay; format: functional
HOP-92 = assay: Growth inhibition against human HOP-92 cells assessed as total growth inhibitory concentration incubated for 48 hrs by sulforhodamine B spectrophotometric assay; format: functional
HT-29 = assay: Growth inhibition of human HT-29 cells incubated for 48 hrs by sulforhodamine B spectrophotometric assay; format: functional
KB 3-1 [8] = assay: Induction of apoptosis in human KB 3-1 cells assessed as increase in BIP protein expression incubated for 24 hrs by Western blotting assay; format: functional, cell-based
HOP-62 = assay: Growth inhibition of human HOP-62 cells incubated for 48 hrs by sulforhodamine B spectrophotometric assay; format: functional
RPMI-8226 = assay: Growth inhibition against human RPMI-8226 cells assessed as lethal concentration incubated for 48 hrs by sulforhodamine B spectrophotometric assay; format: functional; settings: read-out: LC50 (the source's name)
UO-31 = assay: Growth inhibition against human UO-31 cells assessed as lethal concentration incubated for 48 hrs by sulforhodamine B spectrophotometric assay; format: functional; settings: read-out: LC50 (the source's name)
HCT-116 = assay: Cytotoxicity against human HCT-116 cells assessed as cell growth inhibition incubated for 72 hrs by MTT assay; format: functional, cell-based; settings: HCT-116, 72 h
[9] = Acute toxicity in C57BL/6 mouse assessed as ratio of lung weight to body weight at 20 mg/kg,ip administration and observed after 22 days (reference value: 0.8 +/- 0.09); format: organism-based; settings: in vivo, 528 h, time 22 day
MCF7 [10] = assay: Cytotoxicity against human MCF7 cells assessed as cell growth inhibition incubated for 72 hrs by MTT assay; format: functional, cell-based; settings: MCF7, 72 h
[11] = Cytotoxicity against human Lymphocyte cells assessed as cell growth inhibition incubated for 72 hrs by MTT assay; format: toxicity, cell-based; settings: lymphocytes
CCRF-CEM [12] = assay: Induction of cell cycle arrest in human CCRF-CEM cells assessed as accumulation of cells at G2/M phase at 4.14 uM incubated for 24 hrs by propidium iodide staining based flow cytometry analysis (reference value: 20.24 +/- 0.25%); format: functional
NCI-H226 = assay: Growth inhibition against human NCI-H226 cells assessed as total growth inhibitory concentration incubated for 48 hrs by sulforhodamine B spectrophotometric assay; format: functional
MDA-MB-231 [13] = assay: Induction of apoptosis in human MDA-MB-231 cells assessed as increase in caspase 3/7 activity at 10 uM incubated for 24 hrs by flow cytometry analysis; format: functional
OVCAR-8 [14] = assay: Growth inhibition against human OVCAR-8 cells assessed as lethal concentration incubated for 48 hrs by sulforhodamine B spectrophotometric assay; format: functional; settings: read-out: LC50 (the source's name)
OVCAR-3 = assay: Growth inhibition against human OVCAR-3 cells assessed as lethal concentration incubated for 48 hrs by sulforhodamine B spectrophotometric assay; format: functional; settings: read-out: LC50 (the source's name)
SK-MEL-5 = assay: Anticancer activity against human SK-MEL-5 cells assessed as cell growth at 10 uM incubated for 48 hrs by sulforhodamine B assay; format: functional; settings: read-out: Activity
MDA-MB-231 [15] = assay: Induction of apoptosis in human MDA-MB-231 cells at 5 uM incubated for 24 hrs by Annexin-V-FITC/propidium iodide staining based flow cytometry analysis (reference value: 8.9%); format: functional
MDA-MB-435 [16] = assay: Growth inhibition against human MDA-MB-435 cells assessed as lethal concentration incubated for 48 hrs by sulforhodamine B spectrophotometric assay; format: functional; settings: read-out: LC50 (the source's name)
T47D = assay: Growth inhibition of human T47D cells incubated for 48 hrs by sulforhodamine B spectrophotometric assay; format: functional
U-251 = assay: Growth inhibition against human U-251 cells assessed as total growth inhibitory concentration incubated for 48 hrs by sulforhodamine B spectrophotometric assay; format: functional
NCI-H322M = assay: Growth inhibition of human NCI-H322M cells incubated for 48 hrs by sulforhodamine B spectrophotometric assay; format: functional
SF-539 = assay: Growth inhibition of human SF-539 cells incubated for 48 hrs by sulforhodamine B spectrophotometric assay; format: functional
MOLT-4 = assay: Growth inhibition of human MOLT-4 cells incubated for 48 hrs by sulforhodamine B spectrophotometric assay; format: functional
786-0 = assay: Growth inhibition against human 786-0 cells assessed as total growth inhibitory concentration incubated for 48 hrs by sulforhodamine B spectrophotometric assay; format: functional
OVCAR-8 [17] = assay: Growth inhibition against human OVCAR-8 cells assessed as total growth inhibitory concentration incubated for 48 hrs by sulforhodamine B spectrophotometric assay; format: functional
MDA-MB-231 [18] = assay: Growth inhibition against human MDA-MB-231 cells assessed as total growth inhibitory concentration incubated for 48 hrs by sulforhodamine B spectrophotometric assay; format: functional

O=C1C2=C(C(=O)c3c(O)cccc31)C(c1ccco1)c1sc(=O)[nH]c1S2 (stereo not drawn)
Activity (CCRF-CEM [1]): 5.02% | GI50 (SNB-75): 3.17 µM | Activity (KB 3-1 [2]): Active | GI50 (RXF 393): 2.02 µM | Activity (CCRF-CEM [3]): 19.29% | TGI (SN12C): 3.49 µM | Activity (MDA-MB-231 [4]): 19.5% | CC50 (SR): > 100 µM | GI50 (MDA-MB-435 [5]): 1.16 µM | CC50 (MCF7 [6]): 8.04 µM | Ratio [7]: 0.51 | TGI (Hs-578T): 6.56 µM | TGI (HCC 2998): 5.51 µM | CC50 (M14): 5.26 µM | CC50 (KM12): > 100 µM | growth at 10 µM (BT-549): -96.8% | GI50 (UACC-62): 1.76 µM | TGI (HOP-92): 8.08 µM | GI50 (HT-29): 3.3 µM | Activity (KB 3-1 [8]): Dose-Dependent Effect | GI50 (HOP-62): 2.04 µM | CC50 (RPMI-8226): > 100 µM | CC50 (UO-31): 36.7 µM | IC50 (HCT-116): 0.6 µM | Ratio [9]: 0.82 | IC50 (MCF7 [10]): 3.08 µM | IC50 at 72 h [11]: > 50 µM | Activity (CCRF-CEM [12]): 23.82% | TGI (NCI-H226): 5.46 µM | Activity (MDA-MB-231 [13]): 20.6% | CC50 (OVCAR-8 [14]): 36.2 µM | CC50 (OVCAR-3): > 100 µM | growth at 10 µM (SK-MEL-5): -93.4% | Activity (MDA-MB-231 [15]): 11.7% | CC50 (MDA-MB-435 [16]): 5.26 µM | GI50 (T47D): 2.87 µM | TGI (U-251): 10.1 µM | GI50 (NCI-H322M): 1.71 µM | GI50 (SF-539): 1.93 µM | GI50 (MOLT-4): 2.71 µM | TGI (786-0): 24.2 µM | TGI (OVCAR-8 [17]): 8.97 µM | TGI (MDA-MB-231 [18]): 9.08 µM
